Measured values from PubChem BioAssay (NCI).
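Growth conditions: 96-well plates. Treatment: test compound, 48 hours, 5 concentrations. Analysis: linear interpolation between bracketing concentrations; unreached endpoints set to highest concentration. Abbreviation: GI50, concentration required for 50% inhibition of growth. TGI is the concentration that stops growth completely.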

Tests used:
Test in all cases: DTP human tumour cell line panel, 48 h
[1] = test system: MDA-MB-435
[2] = test system: NCI-H23 lung
[3] = test system: PC-3 prostate
[4] = test system: U251 CNS
[5] = test system: OVCAR-5 ovarian
[6] = test system: A498 renal
[7] = test system: SF-268 CNS
[8] = test system: UACC-257 melanoma
[9] = test system: MDA-MB-468 breast
[10] = test system: RPMI-8226 leukemia
[11] = test system: K-562 leukemia
[12] = test system: NCI-H522 lung
[13] = test system: HCT-116 colon
[14] = test system: MCF7 breast
[15] = test system: CAKI-1 renal
[16] = test system: T-47D breast
[17] = test system: CCRF-CEM leukemia
[18] = test system: RXF 393 renal
[19] = test system: DU-145 prostate
[20] = test system: KM12 colon
[21] = test system: TK-10 renal
[22] = test system: SNB-75 CNS
[23] = test system: HOP-62 NSCLC
[24] = test system: OVCAR-3 ovarian
[25] = test system: LOX IMVI melanoma
[26] = test system: NCI-H226 lung
[27] = test system: M14 melanoma
[28] = test system: COLO 205 colon
[29] = test system: UACC-62 melanoma
[30] = test system: SN12C renal
[31] = test system: MDA-MB-231 breast
[32] = test system: SNB-19 CNS
[33] = test system: HCT-15 colon
[34] = test system: HS 578T breast
[35] = test system: SK-OV-3 ovarian
[36] = test system: SW-620 colon
[37] = test system: 786-0 renal
[38] = test system: HCC-2998 colon
[39] = test system: BT-549 breast
[40] = test system: EKVX NSCLC
[41] = test system: OVCAR-8 ovarian
[42] = test system: UO-31 renal
[43] = test system: MALME-3M melanoma
[44] = test system: MOLT-4 leukemia
[45] = test system: OVCAR-4 ovarian
[46] = test system: SF-295 CNS
[47] = test system: HOP-92 NSCLC
[48] = test system: SK-MEL-28 melanoma
[49] = test system: ACHN renal
[50] = test system: SK-MEL-5 melanoma
[51] = test system: HT29 colon
[52] = test system: IGROV1 ovarian
[53] = test system: SK-MEL-2 melanoma
[54] = test system: NCI-H460 lung
[55] = test system: SR leukemia
[56] = test system: SF-539 CNS
[57] = test system: A549 NSCLC
[58] = test system: NCI/ADR-RES ovarian
[59] = test system: HL-60(TB) leukemia

## CC1(C)CC[C@]2(C(=O)Nc3ccccc3)CC[C@]3(C)C(=CC[C@@H]4[C@@]5(C)CC[C@H](N)C(C)(C)[C@@H]5CC[C@]43C)[C@H]2C1
[1]
  GI50: 14.8 µM
  TGI: 29 µM
[2]
  GI50: 16.8 µM
  TGI: 31.5 µM
[3]
  GI50: 15.9 µM
  TGI: 31.8 µM
[4]
  GI50: 17.5 µM
  TGI: 35.1 µM
[5]
  GI50: 16.2 µM
  TGI: 30 µM
[6]
  GI50: 13.2 µM
  TGI: 27.1 µM
[7]
  GI50: 16.6 µM
  TGI: 33.5 µM
[8]
  GI50: 15.8 µM
  TGI: 32.2 µM
[9]
  GI50: 13.3 µM
  TGI: 28.1 µM
[10]
  GI50: 19 µM
  TGI: 80 µM
[11]
  GI50: 4.07 µM
  TGI: > 100 µM
[12]
  GI50: 16.2 µM
  TGI: 32.4 µM
[13]
  GI50: 9.26 µM
  TGI: 26.2 µM
[14]
  GI50: 3.51 µM
  TGI: 14.7 µM
[15]
  GI50: 14.6 µM
  TGI: 28.5 µM
[16]
  GI50: 14.9 µM
  TGI: 34.7 µM
[17]
  GI50: 14.6 µM
  TGI: 34.5 µM
[18]
  GI50: 10.2 µM
  TGI: 24 µM
[19]
  GI50: 16.1 µM
  TGI: 30.6 µM
[20]
  GI50: 17.3 µM
  TGI: 32.4 µM
[21]
  GI50: 17.4 µM
  TGI: 33.3 µM
[22]
  GI50: 12.2 µM
  TGI: 25.5 µM
[23]
  GI50: 15.8 µM
  TGI: 32.4 µM
[24]
  GI50: 13.2 µM
  TGI: 26.6 µM
[25]
  GI50: 4.31 µM
  TGI: 16.2 µM
[26]
  GI50: 14.9 µM
  TGI: 31.8 µM
[27]
  GI50: 17.6 µM
  TGI: 33.8 µM
[28]
  GI50: 15.6 µM
  TGI: 35.7 µM
[29]
  GI50: 16.7 µM
  TGI: 30.6 µM
[30]
  GI50: 16.5 µM
  TGI: 30.6 µM
[31]
  GI50: 16.1 µM
  TGI: 30 µM
[32]
  GI50: 16.4 µM
  TGI: 30.6 µM
[33]
  GI50: 13.6 µM
  TGI: 27.9 µM
[34]
  GI50: 16.2 µM
  TGI: 35.2 µM
[35]
  GI50: 17.2 µM
  TGI: 33.6 µM
[36]
  GI50: 5.47 µM
  TGI: 20.3 µM
[37]
  GI50: 13.8 µM
  TGI: 29 µM
[38]
  GI50: 12 µM
  TGI: 25.1 µM
[39]
  GI50: 18.3 µM
  TGI: 32.9 µM
[40]
  GI50: 15.6 µM
  TGI: 30.4 µM
[41]
  GI50: 18.2 µM
  TGI: 38.3 µM
[42]
  GI50: 13.9 µM
  TGI: 27.1 µM
[43]
  GI50: 16.4 µM
  TGI: 30.3 µM
[44]
  GI50: 15.3 µM
  TGI: 42 µM
[45]
  GI50: 15.8 µM
  TGI: 31.4 µM
[46]
  GI50: 15.6 µM
  TGI: 30.4 µM
[47]
  GI50: 11.5 µM
  TGI: 26.1 µM
[48]
  GI50: 17.5 µM
  TGI: 31.7 µM
[49]
  GI50: 15.9 µM
  TGI: 29.5 µM
[50]
  GI50: 15.5 µM
  TGI: 29 µM
[51]
  GI50: 17.5 µM
  TGI: 39.9 µM
[52]
  GI50: 15.8 µM
  TGI: 30.2 µM
[53]
  GI50: 17.1 µM
  TGI: 32.3 µM
[54]
  GI50: 13.4 µM
  TGI: 28 µM
[55]
  GI50: 2.84 µM
  TGI: 13.3 µM
[56]
  GI50: 15.4 µM
  TGI: 29.1 µM
[57]
  GI50: 17.4 µM
  TGI: 41.6 µM
[58]
  GI50: 16.2 µM
  TGI: 31.9 µM
[59]
  GI50: 10 µM
  TGI: 37.5 µM
